Measurements from patent US10647677B2, “Analogues of hydroxychloroquine (HCQ) without retinal toxicity” (Inoviem Scientific, priority 2015, dated 2020).
Where two headings read alike, the source gives them in different places.

Legend:
αB-crystalline (αB-C) = biological target: T1, αB-crystalline (αB-C) (Homo sapiens, UniProt P02511); experiment: Surface plasmon resonance (Biacore 3000) affinity on αB-crystalline; format: binding; conditions: SPR at 25° C.; for Kd: read-out: Kd (M) on crystallin
T1 construct: purchased
T1 sequence (P02511 1-175): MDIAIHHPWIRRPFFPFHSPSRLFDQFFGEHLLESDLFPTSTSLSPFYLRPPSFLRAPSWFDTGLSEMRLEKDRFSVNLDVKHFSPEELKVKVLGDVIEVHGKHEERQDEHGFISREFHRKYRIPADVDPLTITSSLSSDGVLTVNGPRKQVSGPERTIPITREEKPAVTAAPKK
Procedure: (§1) Using the surface plasmon resonance technology (Biacore 3000), the interaction constants between HCQ analogues (HCQa) and myeloperoxidase (MPO) targets and αB-crystalline (αB-C) were measured at 25° C. according to 12 different series of experiments. First, HCQ analogues at five different concentrations (10^−6 to 10^−8 M) were injected at a rate of 10^−6 L/min for 250 s on the MPO and αB-C targets as well as on the ERK1 and ERK2 controls, followed by a dissociation phase of 150 s.
(§2) The kinetic parameters were measured using the BIAevaluation 4.1 software. The set of resonance unit values obtained with the controls were subtracted from those obtained with MPO and αB-C to compensate for non-specific bonds.
(§3) The differences in Kd values for the myeloperoxidase (MPO) and αB-crystalline (αB-C) enzymes in Tables 1 and 2 are due to the variability of commercial batches. Nevertheless, the difference between the Kd of the compounds HCQ and CB137 remains identical according to these two tests.
(§4) Analysis of the compounds in the form of sulphate salts according to the method described above: […]

myeloperoxidase (MPO) = biological target: T2, myeloperoxidase (MPO) (Homo sapiens, UniProt P05164); experiment: Surface plasmon resonance (Biacore 3000) affinity on MPO; format: binding; conditions: SPR at 25° C.
T2 construct: purchased
T2 sequence (P05164 49-745): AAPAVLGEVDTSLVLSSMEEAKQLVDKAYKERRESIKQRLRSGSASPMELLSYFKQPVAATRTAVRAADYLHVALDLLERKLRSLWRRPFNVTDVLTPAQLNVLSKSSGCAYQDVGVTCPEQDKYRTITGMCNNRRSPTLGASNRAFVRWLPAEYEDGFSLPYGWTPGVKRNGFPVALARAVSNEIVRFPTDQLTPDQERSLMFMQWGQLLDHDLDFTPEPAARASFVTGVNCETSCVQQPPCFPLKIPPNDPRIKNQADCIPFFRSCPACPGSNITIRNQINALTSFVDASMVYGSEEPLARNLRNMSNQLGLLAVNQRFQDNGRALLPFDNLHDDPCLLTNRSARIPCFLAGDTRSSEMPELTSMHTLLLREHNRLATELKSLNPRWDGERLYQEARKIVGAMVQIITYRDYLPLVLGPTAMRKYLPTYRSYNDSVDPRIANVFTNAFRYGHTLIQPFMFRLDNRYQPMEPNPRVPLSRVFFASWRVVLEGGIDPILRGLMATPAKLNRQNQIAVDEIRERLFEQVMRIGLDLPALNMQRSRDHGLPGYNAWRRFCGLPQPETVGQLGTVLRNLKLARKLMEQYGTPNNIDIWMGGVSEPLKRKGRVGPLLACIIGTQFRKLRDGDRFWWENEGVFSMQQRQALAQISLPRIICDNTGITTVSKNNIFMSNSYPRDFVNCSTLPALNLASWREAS
Procedure: as §1, §2, §3, §4

[1] = Table 2, compounds in the form of sulphate salts

Kd (αB-crystalline (αB-C); Table 1) [M] | Kd (myeloperoxidase (MPO); Table 1) [nM] | Kd (αB-crystalline (αB-C); [1]) [M] | Kd (myeloperoxidase (MPO); [1]) [nM] | Structure (SMILES) | Kd (M) on crystallin (αB-crystalline (αB-C); Table 1)
2.19e-09 | 711 | – | – | CCN(CCO)CCCC(C)Nc1ccnc2cc(Cl)ccc12 (single isomer, unassigned) [CB133] | –
3.5e-08 | 71 | – | – | CCN(CCO)CCCC(C)Nc1c(C#N)cnc2cc(Cl)ccc12 (stereo not drawn) [CB029] | –
6.6e-07 | 36 | – | – | CCN(CCO)CCCC(C)Nc1c(C(=O)C2CC2)cnc2cc(Cl)ccc12 (stereo not drawn) [CB103] | –
8.1e-07 | 14 | – | – | CCN(CCO)CCCC(C)Nc1c(C(F)(F)F)cnc2cc(Cl)ccc12 (stereo not drawn) [CB108] | –
2.2e-05 | 60 | – | – | CCN(CCO)CCCC(C)Nc1c(C(=O)C(F)(F)F)cnc2cc(Cl)ccc12 (stereo not drawn) [CB114] | –
– | – | 0.0002 | 4000 | CCN(CCO)CCCC(C)Nc1ccnc2cc(Cl)cc(Cl)c12 (stereo not drawn) [CB300] | –
– | – | – | 9000 | CCN(CCO)CCCC(C)Nc1ccnc2c(Cl)c(Cl)ccc12 (stereo not drawn) [CB317] | –
– | – | 1e-05 | 7000 | CCN(CCO)CCC[C@@H](C)Nc1ccnc2cc(Cl)cc(Cl)c12 [CB321 R-enantiomer] | –
– | – | 0.0002 | 90 | CCN(CCO)CCC[C@@H](C)Nc1c(Cl)cnc2cc(Cl)ccc12 [CB323 R-enantioer] | –
– | – | 2e-05 | 5000 | CCN(CCO)CCCC(C)Nc1c(C2CC2)cnc2cc(Cl)ccc12 (stereo not drawn) [CB341] | –
– | 7.5 | – | – | CCOC(=O)c1cnc2cc(Cl)ccc2c1NC(C)CCCN(CC)CCO (stereo not drawn) [NT36F9] | Kd not measurable because below the detection threshold
– | – | – | – | C#CCOCc1cnc2cc(Cl)ccc2c1NC(C)CCCN(CC)CCO (stereo not drawn) [NT69] | Kd not measurable because below the detection threshold

Structure (SMILES) | Kd (αB-crystalline (αB-C); Table 1) [M] | Kd (myeloperoxidase (MPO); Table 1) [nM] | Kd (αB-crystalline (αB-C); [1]) [M] | Kd (myeloperoxidase (MPO); [1]) [nM] | Kd (M) on crystallin (αB-crystalline (αB-C); Table 1)
CCN(CCO)CCCC(C)Nc1c(Cl)cnc2cc(Cl)ccc12 (stereo not drawn) [CB072] | 1.6e-07 | 1.1 | – | – | –
